Measured values published in patent publication US20110045568A1, “METHOD FOR RESTORING BMP-RECEPTOR SIGNALING IN A CELL” (FREIE UNIVERSITÄT BERLIN, priority 2008, published 2011).

Columns and labels:
Smad1/5/8 = experiment: Smad phosphorylation assay in C2C12 cells; type: cell-based, mouse; conditions: without ligand, sh-cGKI versus sh-control
Description: (§1) Whole cellular extracts were subjected to immunoblot using α-pSmad1/5/8 antibody. α-cGKIβ and α-β-actin immunoblotting was used as expression and loading control. To monitor the activity of cGKIβ the membrane was re-probed with α-pVASP antibody. Results were quantified using ImageJ and Smad1 C-terminal phosphorylation was normalized relative to β-actin. […] (C) Efficiency of cGKI knock down using a specific short hairpin-RNA (sh-cGKI) compared to a control (sh-control) was validated in C2C12 cells via immunoblot using α-cGKI antibody. Applied protein amount was controlled by α-β-tubulin antibody. (D) C2C12 cells were transfected with sh-cGKI and sh-control and subjected as in (A) to Smad phosphorylation assay. Smad1/5/8 phosphorylation and protein loading was monitored with α-pSmad1/5/8 and α-β-actin antibodies. Results were quantified using […]) and Smad1/5 C-terminal phosphorylation was normalized relative to β-actin.
(§2) Cell lysis and immunoblotting was performed as described in (Hartung et al., 2006).

[1] = tested on: BMP response element (BRE from Id1 promoter) luciferase reporter; experiment: BRE luciferase reporter gene assay in C2C12 cells; type: cell-based, mouse
Protocol: Luciferase activity was measured and error bars result from the mean of duplicate measurements. […] Expression of cGKIα/β was controlled by immunoblot using α-cGKI antibody. (C) As in (A and B) except that reporters were co-transfected with sh-cGKI, sh-cGKI mix and sh-control into C2C12 cells. BRE driven luciferase activity was measured and error bars represent deviation of the mean of duplicate measurements. […] Following cell extraction RNA was reverse transcribed into cDNA. The mRNA amount of Id1 was analyzed using Id1 specific primers including the control of applied cDNA by PCR using β-actin specific primers. The result is derived from a representative experiment. (F) As in (A and B), except that reporters were co-transfected with cGKIα and MYC-TFII-I into C2C12 cells. […] Lysates were pooled and immunoblotted for expression of cGKIα and TFII-I. (G) As in (E) except that mRNA amount of cGKI was analyzed using cGKI specific primers. The result is derived from an exemplary experiment. Results were quantified using ImageJ. cGKI mRNA expression was normalized relative to β-actin. […] Fold changes in BRE reporter activities were normalized to the non-treated empty vector control (mean±SD). […] The PDGF- or serum-induced proliferation was measured.
C2C12 cells were transfected with pBRE4-luc and pRL-TK and indicated constructs. […] Luciferase activity was measured according to manufacturer's instructions using the Dual-Luciferase® Reporter Assay System (Promega) and a FB12 or Mithras LB 940 luminometer (Berthold). Expression control was examined by immunoblotting.

[2] = molecular target: T1, GST-BRII-tail (methionine 501 to leucine 1038) (UniProt Q13873)
T1 sequence: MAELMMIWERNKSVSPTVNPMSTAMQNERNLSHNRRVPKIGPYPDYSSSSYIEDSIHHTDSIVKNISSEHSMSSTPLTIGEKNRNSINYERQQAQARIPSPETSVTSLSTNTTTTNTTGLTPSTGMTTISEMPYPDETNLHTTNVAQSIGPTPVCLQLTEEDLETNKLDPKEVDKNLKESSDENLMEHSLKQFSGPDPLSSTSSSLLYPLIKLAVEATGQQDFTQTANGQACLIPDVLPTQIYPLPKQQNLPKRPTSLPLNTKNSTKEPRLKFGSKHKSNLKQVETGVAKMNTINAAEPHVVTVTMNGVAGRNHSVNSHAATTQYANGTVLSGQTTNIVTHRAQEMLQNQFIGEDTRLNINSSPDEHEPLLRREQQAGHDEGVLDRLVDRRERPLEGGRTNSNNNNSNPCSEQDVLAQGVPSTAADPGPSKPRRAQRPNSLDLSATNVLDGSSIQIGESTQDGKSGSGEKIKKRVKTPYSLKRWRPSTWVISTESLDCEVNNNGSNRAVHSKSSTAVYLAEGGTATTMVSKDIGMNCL

Id1 promoter = experiment: Chromatin immunoprecipitation (ChIP) at the Id1 promoter in C2C12 cells; type: cell-based, mouse; conditions: co-stimulation with or stimulation with 8-Br-cGMP alone, 1 μmol/l, 4 hrs
Protocol: Chromatin immunoprecipitation (ChIP) was performed using (A) α-cGKI or α-Smad1 antibody or (B) α-Smad1 followed by α-cGKI antibody and vice versa or (C) α-Smad1 followed by α-TFII-I antibody and vice versa. Subsequent PCR identified a co-precipitated Id1 promoter sequence using specific primers. […] To exclude unspecific outcome control samples were run (for ChIP: no antibody, IgG, α-GFP antibody; for two-step ChIP: α-respective antibody followed by IgG; for unspecific amplification via PCR: no template). […] C2C12 cells were stimulated with BMP-2 for 4 h or left unstimulated. Endogenous chromatin immunoprecipitations (ChIP) of a specific Id1 promoter fragment was performed using α-Smad1 and α-cGKI antibodies (left). Id1 promoter was assayed for cGKI/TFII-I complex formation by one-step and two-step ChIP with the indicated antibodies. (D) Endogenous complexes with cGKI from C2C12 cells were analyzed with α-TFII-I, α-Smad1 and α-Smad4 antibodies and a lysate aliquot was monitored for protein expression. (E) Smad1/TFII-I association was analyzed in 293T cells expressing both proteins. IP was performed using a Smad1 directed antibody and the pellets were examined for co-IP of TFII-I. Lysate control was done by immunoblotting α-Smad1 and α-TFII-I.
Briefly, C2C12 cells were grown to a confluence of 80-90% (10 cm dish). […] PCR products were separated on 8% PA gels and analyzed under UV light.

VASP = experiment: Endogenous VASP phosphorylation in C2C12 cells (immunoblot); type: cell-based, mouse; conditions: 1 μmol/l 8-Br-cGMP
Protocol: Endogenous VASP phosphorylation in C2C12 cells was monitored in response to 1 μmol/l and 100 μmol/l 8-Br-cGMP stimulation. Lysates were analyzed using immunoblot α-pVASP and α-β-actin.

cGKI = experiment: Immunofluorescence microscopy of cGKI localization in C2C12 cells; type: cell-based, mouse; conditions: stimulation for 30 min
Protocol: (C) Immunofluorescence staining of cGKI in C2C12 cells after stimulation with BMP-2 or 8-Br-cGMP. DNA was stained using Hoechst dye.
Analysis was done with 63-fold magnification at a Leica DMR (Leica) confocal microscope. To examine the protein localization C2C12 cells or transfected 293T cells were starved for 3 hrs and either stimulated with 10 or 20 nmol/l BMP-2 and/or 1 mmol/18-Br-cGMP for 30 min or for 5 to 60 min or left untreated. Indirect immunofluorescence was performed as described in (Bengtsson and Wilson, 2006). Cells were analyzed using fluorescence microscopy (63-fold magnification, Axiovert 200M, Zeiss).

Smad1 = experiment: Smad phosphorylation assay in transfected 293T cells; type: cell-based; conditions: 293T cells co-expressing Smad1, non-stimulated and BMP-2/8-Br-cGMP co-stimulated
Description: as §1, §2

HA-BRII-LF Q657ins16 = experiment: BRE reporter assay with BRII PAH mutant in C2C12 cells; type: cell-based, mouse; conditions: C2C12 cells overexpressing cGKI and PAH mutant versus mutant alone
Protocol: (§3) Luciferase activity was measured and error bars result from the mean of duplicate measurements. […] Expression of cGKIα/β was controlled by immunoblot using α-cGKI antibody. (C) As in (A and B) except that reporters were co-transfected with sh-cGKI, sh-cGKI mix and sh-control into C2C12 cells. BRE driven luciferase activity was measured and error bars represent deviation of the mean of duplicate measurements. […] Luciferase activities are represented as mean of each value and standard deviations result from duplicate measurements. […] Following cell extraction RNA was reverse transcribed into cDNA. The mRNA amount of Id1 was analyzed using Id1 specific primers including the control of applied cDNA by PCR using β-actin specific primers. The result is derived from a representative experiment. (F) As in (A and B), except that reporters were co-transfected with cGKIα and MYC-TFII-I into C2C12 cells. BRE driven luciferase activity was measured, standard deviations result from duplicate measurements. […] Lysates were pooled and immunoblotted for expression of cGKIα and TFII-I. (G) As in (E) except that mRNA amount of cGKI was analyzed using cGKI specific primers. The result is derived from an exemplary experiment. Results were quantified using ImageJ. cGKI mRNA expression was normalized relative to β-actin. […] The PDGF- or serum-induced proliferation was measured. […]

[3] = tested on: human aortic smooth muscle cells; experiment: PDGF- or serum-induced proliferation of human aortic smooth muscle cells expressing BMPRII mutant; type: cell-based; conditions: cells transfected with MYC-BMPRII-Q567ins16 with cGKI coexpression, 24 h
Protocol: as §3

sh-cGKI: shRNA construct specific for mouse cGKI, SEQ ID NO 3 (CACCGGGACGATGTTTCTAACAAACGAATTTGTTAGAAACATCGTCC; listed as Homo sapiens)
endogenous Smad1/5/8 phosphorylation (Smad1/5/8): reduced
BRE reporter gene response upon ligand stimulation compared to control cells ([1]; C2C12 cells transfected with sh-cGKI versus sh-control, BMP-2 stimulated): less than 50%

recombinant cGKIα (Promega)
in vitro phosphorylation (γ-32P-ATP, autoradiography), cGKIα activated with 8-Br-cGMP [2]: BRII-tail was phoshorylated by activated cGKlα

Nc1nc2c(nc(Br)n2[C@@H]2O[C@@H]3COP(=O)(O)O[C@H]3[C@H]2O)c(=O)[nH]1 [8-Br-cGMP]
effect on binding of Smad1 and cGKI to the Id1 promoter (Id1 promoter): did not affect
cGKI-mediated VASP phosphorylation (VASP): weak cGKI-mediated VASP phosphorylation
nuclear translocation of endogenous cGKI (cGKI): redistribution of cGKI to the nucleus
BRE reporter gene activity upon stimulation ([1]; C2C12 cells, endogenous cGKI, 1 nmol/l BMP-2 and/or 1 μmol/l or 100 μmol/l 8-Br-cGMP, 24 hrs): did not affect

B1: cGKIβ: β isoform of cGMP-dependent protein kinase I, SEQ ID NO 2 (protein, listed as Homo sapiens)
chain: MGTLRDLQYALQEKIEELRQRDALIDELELELDQKDELIQKLQNELDKYRSVIRPATQQAQKQSASTLQGEPRTKRQAISAEPTAFDIQDLSHVTLPFYPKSPQSKDLIKEAILDNDFMKNLELSQIQEIVDCMYPVEYGKDSCIIKEGDVGSLVYVMEDGKVEVTKEGVKLCTMGPGKVFGELAILYNCTRTATVKTLVNVKLWAIDRQCFQTIMMRTGLIKHTEYMEFLKSVPTFQSLPEEILSKLADVLEETHYENGEYIIRQGARGDTFFIISKGTVNVTREDSPSEDPVFLRTLGKGDWFGEKALQGEDVRTANVIAAEAVTCLVIDRDSFKHLIGGLDDVSNKAYEDAEAKAKYEAEAAFFANLKLSDFNIIDTLGVGGFGRVELVQLKSEESKTFAMKILKKRHIVDTRQQEHIRSEKQIMQGAHSDFIVRLYRTFKDSKYLYMLMEACLGGELWTILRDRGSFEDSTTRFYTACVVEAFAYLHSKGIIYRDLKPENLILDHRGYAKLVDFGFAKKIGFGKKTWTFCGTPEYVAPEIILNKGHDISADYWSLGILMYELLTGSPPFSGPDPMKTYNIILRGIDMIEFPKKIAKNAANLIKKLCRDNPSERLGNLKNGVKDIQKHKWFEGFNWEGLRKGTLTPPIIPSVASPTDTSNFDSFPEDNDEPPPDDNSGWDIDF
C-terminal Smad1 phosphorylation (Smad1): resulted in phosphorylation of Smad1

B2: cGKI: cGMP-dependent protein kinase I (α or β isoform, SEQ ID NO 1 or 2), overexpressed in cells (protein, UniProt Q13976 2-671, looked up)
cGMP-dependent protein kinase …: SELEEDFAKILMLKEERIKELEKRLSEKEEEIQELKRKLHKCQSVLPVPSTHIGPRTTRAQGISAEPQTYRSFHDLRQAFRKFTKSERSKDLIKEAILDNDFMKNLELSQIQEIVDCMYPVEYGKDSCIIKEGDVGSLVYVMEDGKVEVTKEGVKLCTMGPGKVFGELAILYNCTRTATVKTLVNVKLWAIDRQCFQTIMMRTGLIKHTEYMEFLKSVPTFQSLPEEILSKLADVLEETHYENGEYIIRQGARGDTFFIISKGTVNVTREDSPSEDPVFLRTLGKGDWFGEKALQGEDVRTANVIAAEAVTCLVIDRDSFKHLIGGLDDVSNKAYEDAEAKAKYEAEAAFFANLKLSDFNIIDTLGVGGFGRVELVQLKSEESKTFAMKILKKRHIVDTRQQEHIRSEKQIMQGAHSDFIVRLYRTFKDSKYLYMLMEACLGGELWTILRDRGSFEDSTTRFYTACVVEAFAYLHSKGIIYRDLKPENLILDHRGYAKLVDFGFAKKIGFGKKTWTFCGTPEYVAPEIILNKGHDISADYWSLGILMYELLTGSPPFSGPDPMKTYNIILRGIDMIEFPKKIAKNAANLIKKLCRDNPSERLGNLKNGVKDIQKHKWFEGFNWEGLRKGTLTPPIIPSVASPTDTSNFDSFPEDNDEPPPDDNSGWDIDF
BRE activity in cells expressing the PAH mutant BRII (HA-BRII-LF Q657ins16): rescues defective BMP signaling
PDGF- or serum-induced proliferation [3]: downregulated
BRE reporter activity upon overexpression ([1]; transfected C2C12 cells, in the absence of BMP-2): increased
